Assay results from ChEMBL document CHEMBL3507680, “University of Dundee, Gates Library screen for HepG2 cell viability”.

Assay: Human HepG2 cell viability assay in 384 well format
Type: toxicity, cell-based
Set-up: dose 125 nL, time 70.5 hour; cytotoxicity at 70.5 h: concentration not given beside the values
Conditions: HepG2 cells, read-out: Inhibition

Compound	cytotoxicity at 70.5 h
CCCc1nnc2sc(C3CCN(CCOC)CC3)nn12	-3.34%
CCN(CC)C(=O)Nc1ccc(N2CCSCC2)cc1C	8.14%
O=S1(=O)CCN(Cc2cccnc2)[C@H]2CCN(c3ncccn3)CC[C@H]21	19.6%
COc1ccccc1C1(CNc2ccc(C(=O)N(C)C)cn2)CC1	25.8%
CC(Cc1cnccn1)NC(=O)COc1ccc(F)cc1F (configuration not stated)	3.61%
CC(C)c1cc(NCC2(Cn3cccn3)CC2)n2nccc2n1	5.08%
COc1c(CNC2CCN(CC(=O)NC3CC3)CC2)c(C)nn1C	2.59%
c1cc(CN2CCOCC3(CCN(CC4CCOCC4)CC3)C2)ccn1	-7.05%
O=C1CC2(CCCCN2C(=O)Cc2ccccc2)CN1c1cccnc1 (configuration not stated)	-1.11%
COc1ccccc1CCNC(=O)NC(C)COCC(F)(F)F (configuration not stated)	-5.34%
COC1CCN(CCNc2ncc(Br)cc2C)CC1	-1.86%
COCc1nc(C(=O)N2CCCC2c2cc(C)on2)cs1 (configuration not stated)	-9.83%
c1ncn(CC2CCCN(Cc3nc(C4CC4)no3)C2)n1 (configuration not stated)	31.5%
CCOCCN1CCC(C(=O)c2cc(F)ccc2F)CC1	17.7%
O=C(NC1CCCN(c2ccccn2)C1)C1(c2ccccc2F)CC1 (configuration not stated)	15.1%
Cc1nccn1CCCNC(=O)C1CCCCN1Cc1ccncc1 (configuration not stated)	-2.44%
CCOc1ccc(CNCc2cccnc2N(C)C)cc1	-5.74%
COC(=O)CCNC(=O)c1ccc(OCc2ccccc2)nc1	-6.92%
CCn1ncc2c1C(COCC1CC1)N(Cc1ccccn1)CC2 (configuration not stated)	-1.07%

Compound	cytotoxicity at 70.5 h
Cc1cc(C(=O)N2CCCC2c2nc(O)cc(C(C)C)n2)on1 (configuration not stated)	-5.06%
CC(C)c1cc(NC(=O)CNC2CCCN(c3cccnn3)C2)on1 (configuration not stated)	3.11%
O=C(c1ccc(=O)[nH]n1)N1CCCC(O)(CN2CCC(F)(F)CC2)CC1 (configuration not stated)	-8.65%
CC(=O)NCCNC(=O)c1cnc(-c2ccccc2)nc1	-17.1%
CN1CCOC(CNCc2coc(-c3cccc(Cl)c3)n2)C1 (configuration not stated)	-0.236%
CC(=O)c1ccc(NC(=O)NC(C(=O)N(C)C)C(C)C)cc1 (configuration not stated)	-4.29%
OCCN1CCCCC1C1OCCO1 (configuration not stated)	0.562%
CC(C)NC(=O)[C@@H]1CCO[C@@H]2CCN(c3ncccn3)C[C@@H]21	0.956%
Cc1nc(NCC2CC2)nc2c1COCC21CCN(S(=O)(=O)C2CC2)C1 (configuration not stated)	-15.4%
CCOc1ncccc1Cn1cc(-c2ccc(CO)o2)nn1	-15.3%
CN(C(=O)C1CCCC1)C(c1cccc(F)c1)c1ccccn1 (configuration not stated)	14.2%
COc1ccc(OC)c(C(=O)N2CCCCC2Cn2cccn2)c1 (configuration not stated)	-0.39%
O=C(Nc1ccccc1)c1ccc2c(c1)C1(CCCCC1)CN2	-2.11%
c1csc(CN2Cc3nccn3CC(Cn3cncn3)C2)n1 (configuration not stated)	-7.09%
CC1(NC(=O)Cc2csc(NC(=O)c3ccccc3)n2)CCS(=O)(=O)C1 (configuration not stated)	-71.2%
Cc1cc(N(C)CC2COc3ccccc3O2)nc(N)n1 (configuration not stated)	-5.43%
Cc1cc(N2CCN(C(=O)c3cc(Cl)c[nH]3)CC2)nc(C(C)C)n1	-7.83%
O=C(NCCNc1cc(-n2cccc2)ncn1)c1cccs1	-4.09%
Cn1ccc(CN2CCCC2c2ccc3c(c2)OCCCO3)cc1=O (configuration not stated)	-12.3%

Compound	cytotoxicity at 70.5 h
CC(C)c1ccc(OCC(=O)N(C)C)cc1	-9.35%
CN(CCOCC1CC1)C(=O)Nc1ccc(C#N)c(Cl)c1	-0.0375%
CCc1nc(CN2CCCN(C(=O)C3CCOCC3)CC2)cs1	18.1%
CC(CO)N1CCN(C(=O)OC(C)(C)C)CC1 (configuration not stated)	-6.8%
O=C([C@@H]1CN(Cc2nccs2)C[C@H]2OCC[C@H]21)N1CCOCC1	-7.1%
OCCN1CCN(Cc2coc(-c3ccccc3)n2)CC1	-4.94%
Cc1cc(C)n(CC2CCN(CC(O)Cn3cccn3)CC2)n1 (configuration not stated)	-1.67%
CC1c2ncc(COCC3CCOCC3)n2CCN1Cc1cccnc1 (configuration not stated)	-4.06%
CN1C(=O)CC[C@@H]2N(C(=O)CCc3cccnc3)CCCC[C@@]21C	-1.68%
O=C1[C@@H]2CN(Cc3cc4ccccc4o3)C[C@]2(C(=O)O)CN1CC1CC1	-4.85%
COc1ncccc1C(=O)N1CCCC1c1c(C)n[nH]c1C (configuration not stated)	37.5%
CC(C)(C(=O)NCCS(N)(=O)=O)c1cccc(Br)c1	-6.85%
Cc1cccc(-c2nccnc2C2CCN(C)CC2)c1C	0.0925%
COCC(=O)N1C[C@@H](c2cc(O)nc(C)n2)[C@H](c2ccccc2F)C1	13%
Cc1cc(C(=O)N2CCCS2(=O)=O)c(C)o1	-9.77%
CCOC(=O)[C@]12CCCN(Cc3cccs3)C[C@H]1CN(CC(C)C)C2	-2.32%
O=C1[C@H]2CN(CC3CC3)C[C@H]2CN1Cc1cccc(F)c1	-7.25%
CCn1nc(C)c(CCNC(=O)C2CCCN(C(N)=O)C2)c1C (configuration not stated)	19.9%
Cc1cccnc1CN(C)C(C(=O)O)c1ccc(-n2cccn2)cc1 (configuration not stated)	-2.91%
